Source: patent publication US8722849B2, “Polypeptides” (Novo Nordisk A/S, priority 2011, dated 2014)
pEC50: −log10 of the molar value. ≈ marks a conversion by molar mass, not a printed value. Like-named read-outs stand apart in the source and are kept apart here. Starred links: 1 amine or outer side, 2 acyl side, 3 side chain; linkers in the order of their positions; H or OH if unused. Positions of bridges follow the written chain, without caps; N, C: chain ends. Residues, ends and D or L forms follow the SMILES beside them. Groups on a side chain read outwards from the residue. *: point of attachment. C20 diacid = O=C(O)CCCCCCCCCCCCCCCCCCC(=O)*; C18 diacid = O=C(O)CCCCCCCCCCCCCCCCC(=O)*; γGlu = O=C(O)[C@H](CCC(=O)[*:2])N[*:1]; AEEA = NCCOCCOCC(=O)O

Key:
[1] = molecular target: T1, human amylin receptor (amylin 3(a) receptor: human calcitonin receptor + RAMP-3) (Homo sapiens, UniProt O60896+P30988); assay: Assay (II)a functional CRE-luciferase assay, human amylin receptor; format: cell-based; conditions: Table 2; BHK amylin 3(a)-receptor/CRE-luc cells
T1 construct: expressed in transfected cells; host or cells: BHK570
T1 sequence (P30988 25-474): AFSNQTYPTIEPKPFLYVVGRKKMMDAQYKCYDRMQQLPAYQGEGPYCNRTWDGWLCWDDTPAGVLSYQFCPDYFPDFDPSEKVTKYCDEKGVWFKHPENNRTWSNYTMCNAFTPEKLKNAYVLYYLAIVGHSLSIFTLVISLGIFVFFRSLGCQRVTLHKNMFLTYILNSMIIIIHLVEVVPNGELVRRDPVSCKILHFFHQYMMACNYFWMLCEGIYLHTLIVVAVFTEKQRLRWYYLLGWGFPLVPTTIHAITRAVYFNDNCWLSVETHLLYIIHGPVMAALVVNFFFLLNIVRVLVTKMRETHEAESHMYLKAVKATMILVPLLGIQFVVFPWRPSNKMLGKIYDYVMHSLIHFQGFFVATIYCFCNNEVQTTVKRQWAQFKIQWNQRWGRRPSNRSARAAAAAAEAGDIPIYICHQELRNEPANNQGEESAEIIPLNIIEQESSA
T1 sequence (O60896 24-148 partner): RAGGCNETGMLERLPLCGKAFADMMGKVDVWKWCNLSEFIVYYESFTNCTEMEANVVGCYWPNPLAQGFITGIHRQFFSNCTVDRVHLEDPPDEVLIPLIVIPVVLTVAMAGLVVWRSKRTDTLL

[2] = molecular target: T2, human calcitonin receptor (Homo sapiens, UniProt P30988); assay: Assay (II)a functional CRE-luciferase assay, human calcitonin receptor; format: cell-based
T2 construct: expressed in transfected cells; host or cells: BHK570
T2 sequence (P30988 25-474): T1 sequence (P30988 25-474)

[3] = Assay (IV) determination of solubility; format: physicochemical
Procedure, shortened: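 Stock ~500 nmol/ml in water; 1:1 with 100 mM buffer, pH 3.0–8.0 (glycylglycine ≤5.0, bistrispropane ≥6.0); 18 h RT; spin; HPLC quantitation of soluble polypeptide.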

[4] = Assay (III) ThT fibrillation assay for physical stability; format: physicochemical
Procedure, shortened: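 Freshly prepared formulations, pH-adjusted, with 1 μM ThT; four or eight replicates incubated at 37 °C under 960 rpm orbital shaking. Fluorescence (ex 444/em 485 nm) read every 20 min; […]. Peptide concentration measured by RP-HPLC before and after the run.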

[5] = bistrispropane buffer, pH 6, pH 6.0, read-out: Solubility pH 6.0
[6] = bistrispropane buffer, pH 6.5, pH 6.5, read-out: Solubility pH 6.5
[7] = bistrispropane buffer, pH 7, pH 7.0, 18 hours at room temperature, Table 3, read-out: Solubility pH 7.0
[8] = bistrispropane buffer, pH 7, pH 7.0, Table 8, read-out: Solubility pH 7.0
[9] = bistrispropane buffer, pH 7, pH 7.0, read-out: Solubility pH 7.0
[10] = bistrispropane buffer, pH 7.5, pH 7.5, read-out: Solubility pH 7.5
[11] = bistrispropane buffer, pH 8, pH 8.0, read-out: Solubility pH 8.0
[12] = glycylglycine buffer, pH 3, pH 3.0, read-out: Solubility pH 3.0
[13] = glycylglycine buffer, pH 4, pH 4.0, 18 hours at room temperature, Table 2, read-out: Solubility pH 4.0
[14] = glycylglycine buffer, pH 4, pH 4.0, read-out: Solubility pH 4.0
[15] = glycylglycine buffer, pH 5, pH 5.0, read-out: Solubility pH 5.0
[16] = Table 7, human calcitonin (CTa) receptor

pEC50 [1] | pEC50 ([2]; Table 11, read-out: CTa receptor human EC50) | solubility at 18 h [3, 5] [µM] | solubility at 18 h [3, 6] [µM] | solubility at 18 h [3, 7] [µM] | solubility at 18 h [3, 8] [µM] | solubility at 18 h ([3]; bistrispropane buffer, pH 7, pH 7.0, Table 9, read-out: Solubility pH 7.0) [µM] | solubility at 18 h [3, 9] [µM] | solubility at 18 h ([3]; bistrispropane buffer, pH 7.5, pH 7.5, Table 9, read-out: Solubility pH 7.5) [µM] | solubility at 18 h [3, 10] [µM] | solubility at 18 h [3, 11] [µM] | solubility at 18 h [3, 12] [µM] | solubility at 18 h [3, 13] [µM] | solubility at 18 h [3, 14] [µM] | solubility at 18 h [3, 15] [µM] | ThT pH 4.0 lag time ([4]; Table 8) [h] | ThT pH 4.0 lag time ([4]; Table 9) [h] | ThT pH 4.0 lag time ([4]; ThT fibrillation assay) [h] | ThT pH 4.0 lag time (h) ([4]; ThT fibrillation assay) | pEC50 [2, 16] | SMILES
8.76 | 8.07 | > 200 | > 200 | > 200 | > 200 | > 200 | > 200 | > 200 | > 200 | > 200 | > 200 | > 200 | > 200 | > 200 | >45 | >45 | >45 | >45 | – | CC[C@H](C)[C@H](NC(=O)[C@@H]1CCCN1C(=O)CNC(=O)[C@H](Cc1ccccc1)NC(=O)[C@H](CC(N)=O)NC(=O)[C@H](CO)NC(=O)[C@H](CO)NC(=O)[C@H](CO)NC(=O)[C@H](Cc1c[nH]cn1)NC(=O)[C@H](CCCCNC(=O)COCCOCCNC(=O)COCCOCCNC(=O)CC[C@H](NC(=O)CCCCCCCCCCCCCCCCC(=O)O)C(=O)O)NC(=O)[C@H](CC(C)C)NC(=O)[C@H](Cc1ccccc1)NC(=O)[C@H](CCC(=O)O)NC(=O)[C@H](C)NC(=O)[C@H](CC(C)C)NC(=O)[C@H](CCCNC(=N)N)NC(=O)[C@H](CCC(N)=O)NC(=O)[C@@H](NC(=O)[C@H](C)NC(=O)[C@@H]1CSSC[C@H](NC(=O)[C@@H](N)CCCCN)C(=O)N[C@@H](CC(N)=O)C(=O)N[C@@H]([C@@H](C)O)C(=O)N[C@@H](C)C(=O)N[C@@H]([C@@H](C)O)C(=O)N1)[C@@H](C)O)C(=O)N[C@@H](CC(C)C)C(=O)N1CCC[C@H]1C(=O)N1CCC[C@H]1C(=O)N[C@H](C(=O)N[C@@H](CC(N)=O)C(=O)N[C@H](C(=O)NCC(=O)N[C@@H](CO)C(=O)N[C@@H](CCC(=O)O)C(=O)N[C@H](C(=O)N[C@@H](Cc1ccc(O)cc1)C(N)=O)[C@@H](C)O)C(C)C)[C@@H](C)O [Example 83, N-epsilon17-[2-(2-{2-[2-(2-{2-[(S)-4-Carboxy-4-(17-carboxyheptadecanoylamino)butyrylamino]ethoxy}ethoxy)acetylamino]ethoxy}ethoxy)acetyl]-[Glu14,Lys17,Ser21,Glu35]-pramlintide] (H-KCNTATCATQRLAEFLK([AEEA-AEEA-γGlu-C18 diacid])HSSSNFGPILPPTNVGSETY-NH2; disulfide 2-7 (inferred); N-terminus and C-terminus assumed)
9.88 | – | 185 (≈ 845 µg/mL) | 64 (≈ 292 µg/mL) | – | – | – | 22 (≈ 100 µg/mL) | – | 47 (≈ 215 µg/mL) | 109 (≈ 498 µg/mL) | > 200 | > 200 | > 200 | > 200 | – | – | >45 | >45 | 9.82 | CC[C@H](C)[C@H](NC(=O)[C@@H]1CCCN1C(=O)CNC(=O)[C@H](Cc1ccccc1)NC(=O)[C@H](CC(N)=O)NC(=O)[C@H](CC(N)=O)NC(=O)[C@H](CO)NC(=O)[C@H](CO)NC(=O)[C@H](Cc1c[nH]cn1)NC(=O)[C@H](Cc1c[nH]cn1)NC(=O)[C@H](CC(C)C)NC(=O)[C@H](Cc1ccccc1)NC(=O)[C@H](CCC(=O)O)NC(=O)[C@H](C)NC(=O)[C@H](CC(C)C)NC(=O)[C@H](CCCNC(=N)N)NC(=O)[C@H](CCC(N)=O)NC(=O)[C@@H](NC(=O)[C@H](C)NC(=O)[C@@H]1CSSC[C@H](NC(=O)[C@H](CCCCN)NC(=O)[C@H](CO)NC(=O)CC[C@H](NC(=O)CCCCCCCCCCCCCCCCCCC(=O)O)C(=O)O)C(=O)N[C@@H](CC(N)=O)C(=O)N[C@@H]([C@@H](C)O)C(=O)N[C@@H](C)C(=O)N[C@@H]([C@@H](C)O)C(=O)N1)[C@@H](C)O)C(=O)N[C@@H](CC(C)C)C(=O)N1CCC[C@H]1C(=O)N1CCC[C@H]1C(=O)N[C@H](C(=O)N[C@@H](CC(N)=O)C(=O)N[C@H](C(=O)NCC(=O)N[C@@H](CO)C(=O)N[C@@H](Cc1c[nH]cn1)C(=O)N[C@H](C(=O)N[C@@H](Cc1ccc(O)cc1)C(N)=O)[C@@H](C)O)C(C)C)[C@@H](C)O [Example 85, N-alpha-[(S)-4-Carboxy-4-(19-carboxynonadecanoylamino)butyryl]-Ser-[Glu14,His17,His35]-pramlintide] ({C20 diacid-γGlu}-SKCNTATCATQRLAEFLHHSSNNFGPILPPTNVGSHTY-NH2; disulfide 3-8 (inferred); C-terminus assumed)
10.26 | – | > 200 | > 200 | > 200 | – | – | > 200 | – | > 200 | > 200 | > 200 | > 200 | > 200 | > 200 | – | – | – | 5 | 10.28 | CC[C@H](C)[C@H](NC(=O)[C@@H]1CCCN1C(=O)CNC(=O)[C@H](Cc1ccccc1)NC(=O)[C@H](CC(N)=O)NC(=O)[C@H](CC(N)=O)NC(=O)[C@H](CO)NC(=O)[C@H](CO)NC(=O)[C@H](Cc1c[nH]cn1)NC(=O)[C@@H](NC(=O)[C@H](CC(C)C)NC(=O)[C@H](Cc1ccccc1)NC(=O)[C@H](CCC(=O)O)NC(=O)[C@H](C)NC(=O)[C@H](CC(C)C)NC(=O)[C@H](CCCNC(=N)N)NC(=O)[C@H](CCC(N)=O)NC(=O)[C@@H](NC(=O)[C@H](C)NC(=O)[C@@H]1CSSC[C@H](NC(=O)[C@H](CCCCN)NC(=O)CC[C@H](NC(=O)CCCCCCCCCCCCCCCCCCC(=O)O)C(=O)O)C(=O)N[C@@H](CC(N)=O)C(=O)N[C@@H]([C@@H](C)O)C(=O)N[C@@H](C)C(=O)N[C@@H]([C@@H](C)O)C(=O)N1)[C@@H](C)O)C(C)C)C(=O)N[C@@H](CC(C)C)C(=O)N1CCC[C@H]1C(=O)N1CCC[C@H]1C(=O)N[C@H](C(=O)N[C@@H](CC(N)=O)C(=O)N[C@H](C(=O)NCC(=O)N[C@@H](CO)C(=O)N[C@@H](CC(N)=O)C(=O)N[C@H](C(=O)N1CCC[C@H]1C(N)=O)[C@@H](C)O)C(C)C)[C@@H](C)O [Example 86, N-alpha-[(S)-4-Carboxy-4-(19-carboxynonadecanoylamino)butyryl]-[Glu14,Pro37]-pramlintide] ({C20 diacid-γGlu}-KCNTATCATQRLAEFLVHSSNNFGPILPPTNVGSNTP-NH2; disulfide 2-7 (inferred); C-terminus assumed)
10.27 | – | > 200 | > 200 | > 200 | > 200 | – | > 200 | – | > 200 | > 200 | > 200 | > 200 | > 200 | > 200 | 29 | – | 29 | 29 | 10.28 | CC[C@H](C)[C@H](NC(=O)[C@@H]1CCCN1C(=O)CNC(=O)[C@H](Cc1ccccc1)NC(=O)[C@H](CC(N)=O)NC(=O)[C@H](CC(N)=O)NC(=O)[C@H](CO)NC(=O)[C@H](CO)NC(=O)[C@H](Cc1c[nH]cn1)NC(=O)[C@H](Cc1c[nH]cn1)NC(=O)[C@H](CC(C)C)NC(=O)[C@H](Cc1ccccc1)NC(=O)[C@H](CCC(=O)O)NC(=O)[C@H](C)NC(=O)[C@H](CC(C)C)NC(=O)[C@H](CCCNC(=N)N)NC(=O)[C@H](CCC(N)=O)NC(=O)[C@@H](NC(=O)[C@H](C)NC(=O)[C@@H]1CSSC[C@H](NC(=O)CNC(=O)CC[C@H](NC(=O)CCCCCCCCCCCCCCCCCCC(=O)O)C(=O)O)C(=O)N[C@@H](CC(N)=O)C(=O)N[C@@H]([C@@H](C)O)C(=O)N[C@@H](C)C(=O)N[C@@H]([C@@H](C)O)C(=O)N1)[C@@H](C)O)C(=O)N[C@@H](CC(C)C)C(=O)N1CCC[C@H]1C(=O)N1CCC[C@H]1C(=O)N[C@H](C(=O)N[C@@H](CC(N)=O)C(=O)N[C@H](C(=O)NCC(=O)N[C@@H](CO)C(=O)N[C@@H](CC(N)=O)C(=O)N[C@H](C(=O)N1CCC[C@H]1C(N)=O)[C@@H](C)O)C(C)C)[C@@H](C)O [Example 91, N-alpha-[(S)-4-Carboxy-4-(19-carboxynonadecanoylamino)butyryl]-[Gly1,Glu14,His17,Pro37]-pramlintide] ({C20 diacid-γGlu}-GCNTATCATQRLAEFLHHSSNNFGPILPPTNVGSNTP-NH2; disulfide 2-7 (inferred); C-terminus assumed)
